# Legend:
# [1] = tested on: ICR male mice; test: Acute toxicity, oral, mice; type: in vivo; conditions: up to 5,000 mg/kg, ICR male mice of 5 weeks old
# Text: To examine the acute toxicity of the arylmethylamine antifungal agents used in the composition of the present invention, Compounds 1 and 2 were selected, and they were, respectively, suspended in 0.5% methyl cellulose and orally administered to ICR male mice of 5 weeks old (body weight: 26-28 g) at a dose corresponding to the body weight.
# [2] = tested on: Candida albicans MTU 12021; test: Disk method (growth inhibition ring); type: cell-based
# Protocol: (3) The effects of the combined use of Compound 1 with miconazole or ketoconazole were examined by a disk method.
# Candida albicans MTU 12021 stain was mixed with a Sabouraud agar medium to have a concentration of 5×10^4 spores/ml, and 10 ml thereof was poured into a sterilized Petri dish to obtain an inoculated agar plate.
# 50 mg of each of Compound 1, miconazole and ketoconazole was impregnated to a disk (Toyo Filter paper of 8 mm in diameter), and the disk was placed on the inoculated agar plate, followed by culturing at 37° C. for 96 hours, whereupon the synergistic effects were evaluated based on the growth inhibition ring thereby appeared.
# [3] = tested on: Candida albicans MTU 12021; test: Checker board method, combined use of Compound 1 with miconazole or ketoconazole; type: cell-based; also: key: +: Growth observed; -: No growth observed
# Protocol: (§1) 1 ml of each drug solution diluted twice was introduced into a sterilized Petri dish, and 8 ml of Sabouraud agar medium was added to prepare a agar plate. Thus, a series of agar plates for the combinations having various concentrations were prepared.
# (§2) Candida albicans MTU 12021 strain cultured on a Sabouraud agar medium for 24 hours, was suspended in a saline, and a cells suspension having a concentration of 2×10^6 spores/ml was prepared by counting the number of spores by a hemacytometer. Then, 50 μl of the cells suspension was inoculated to the above agar plates by means of a microplanter (manufactured by Sakuma Seisakusho). The inoculated agar plates were cultured at 37° C. for 48 hours, whereupon the presence or absence of the growth of the strain was examined.
# (§3) Culture medium: Sabouraud agar medium
# (§4) Culturing condition: 37° C. for 48 hours
# (§5) Strain used: Candida albicans MTU 12021
# [4] = tested on: Candida albicans MTU 12021; test: Agar dilution MIC, single and combined use; type: cell-based; conditions: Candida albicans, MTU12021; single use; Sabouraud agar, 37° C., 48 hours; read-out: Minimum Inhibitory Concentration (MIC)
# Protocol: (1) The effects of the combined use of Compound 1 with various imidazole antifungal agents against Candida albicans MTU 12021 strain were examined as follows. […] Then, distilled water containing 0.1% by weight of Tween 80 was added thereto to obtain drug solutions having a concentration of from 1 to 1,000 μg/ml.
# as §1, §2, §3, §4, §5
# [5] = tested on: Candida albicans MTU 12021; test: Agar dilution MIC, single and combined use; type: cell-based; conditions: Compound 1 combined with non-azole agents; Table 4
# [6] = tested on: Candida albicans MTU 12021; test: Influence of combined use of Compound 1 with miconazole over the growth curve; type: cell-based; conditions: 24 and 48 hours, FIG. 1
# Protocol: Upon expiration of 24 hours and 48 hours, 0.1 ml of the culture medium was sampled and spread on a Sabouraud agar plate containing 0.5% of yeast extract, followed by culturing at 37° C. for 48 hours. Then, the number of colonies were counted to determine the number of survived fungi.
structure (smiles),measurement,setting,value
"CN(Cc1ccc(C(C)(C)C)cc1)Cc1cccc2ccccc12 [Compound 1, N-4-tert-butylbenzyl-N-methyl-1-naphthalenemethylamine]",death,[1],no instance of death
same,effect of combined use with miconazole on inhibitory ring,"[2]; Compound 1 disk on periphery of incomplete inhibitory ring of miconazole disk, FIG. 2",a portion of the incomplete inhibitory ring is completely inhibited
same,"effects of combined use, Compound 1 with ketoconazole",[2]; FIG. 3,remarkable effects of the combined use
same,Growth,"[3]; Compound 1 0.39 μg/ml, ketoconazole 0",+
same,Growth,"[3]; Compound 1 0.78 μg/ml, ketoconazole 0",+
same,Growth,"[3]; Compound 1 1.56 μg/ml, ketoconazole 0",+
same,Growth,"[3]; Compound 1 3.13 μg/ml, ketoconazole 0",+
same,Growth,"[3]; Compound 1 3.13 μg/ml, miconazole 0",+
same,Growth,"[3]; Compound 1 12.5 μg/ml, ketoconazole 0",+
same,Growth,"[3]; Compound 1 12.5 μg/ml, miconazole 0",+
same,Growth,"[3]; Compound 1 25 μg/ml, ketoconazole 0",+
same,Growth,"[3]; Compound 1 25 μg/ml, miconazole 0",+
same,Growth,"[3]; Compound 1 50 μg/ml, ketoconazole 0",+
same,Growth,"[3]; Compound 1 50 μg/ml, miconazole 0",+
same,Growth,"[3]; Compound 1 100 μg/ml, ketoconazole 0",+
same,Growth,"[3]; Compound 1 100 μg/ml, miconazole 0",+
same,Growth,[3]; Compound 1 0.39 + ketoconazole 0.1 μg/ml,+
same,Growth,[3]; Compound 1 0.39 + ketoconazole 0.2 μg/ml,+
same,Growth,[3]; Compound 1 0.39 + ketoconazole 0.39 μg/ml,+
same,Growth,[3]; Compound 1 0.39 + ketoconazole 0.78 μg/ml,+
same,Growth,[3]; Compound 1 0.39 + ketoconazole 1.56 μg/ml,+
same,Growth,[3]; Compound 1 0.39 + ketoconazole 3.13 μg/ml,+
same,Growth,[3]; Compound 1 0.39 + ketoconazole 12.5 μg/ml,+
same,Growth,[3]; Compound 1 0.39 + ketoconazole 25 μg/ml,-
same,Growth,[3]; Compound 1 0.39 + ketoconazole 50 μg/ml,-
same,Growth,[3]; Compound 1 0.39 + ketoconazole 100 μg/ml,-
same,Growth,[3]; Compound 1 0.78 + ketoconazole 0.1 μg/ml,+
same,Growth,[3]; Compound 1 0.78 + ketoconazole 25 μg/ml,-
same,Growth,[3]; Compound 1 0.78 + ketoconazole 50 μg/ml,-
same,Growth,[3]; Compound 1 0.78 + ketoconazole 100 μg/ml,-
same,Growth,[3]; Compound 1 1.56 + ketoconazole 0.1 μg/ml,+
same,Growth,[3]; Compound 1 1.56 + ketoconazole 25 μg/ml,-
same,Growth,[3]; Compound 1 1.56 + ketoconazole 50 μg/ml,-
same,Growth,[3]; Compound 1 1.56 + ketoconazole 100 μg/ml,-
same,Growth,[3]; Compound 1 3.13 + ketoconazole 0.1 μg/ml,+
same,Growth,[3]; Compound 1 3.13 + ketoconazole 25 μg/ml,-
same,Growth,[3]; Compound 1 3.13 + ketoconazole 50 μg/ml,-
same,Growth,[3]; Compound 1 3.13 + ketoconazole 100 μg/ml,-
same,Growth,[3]; Compound 1 3.13 + miconazole 0.39 μg/ml,+
same,Growth,[3]; Compound 1 3.13 + miconazole 0.78 μg/ml,+
same,Growth,[3]; Compound 1 3.13 + miconazole 1.56 μg/ml,+
same,Growth,[3]; Compound 1 3.13 + miconazole 3.13 μg/ml,+
same,Growth,[3]; Compound 1 3.13 + miconazole 12.5 μg/ml,+
same,Growth,[3]; Compound 1 3.13 + miconazole 25 μg/ml,+
same,Growth,[3]; Compound 1 3.13 + miconazole 50 μg/ml,-
same,Growth,[3]; Compound 1 3.13 + miconazole 100 μg/ml,-
same,Growth,[3]; Compound 1 6.25 + ketoconazole 0.1 μg/ml,+
same,Growth,[3]; Compound 1 6.25 + ketoconazole 25 μg/ml,-
same,Growth,[3]; Compound 1 6.25 + ketoconazole 50 μg/ml,-
same,Growth,[3]; Compound 1 6.25 + ketoconazole 100 μg/ml,-
same,Growth,[3]; Compound 1 6.25 + miconazole 0.39 μg/ml,+
same,Growth,[3]; Compound 1 6.25 + miconazole 0.78 μg/ml,+
same,Growth,[3]; Compound 1 6.25 + miconazole 1.56 μg/ml,+
same,Growth,[3]; Compound 1 6.25 + miconazole 3.13 μg/ml,+
same,Growth,[3]; Compound 1 6.25 + miconazole 12.5 μg/ml,+
same,Growth,[3]; Compound 1 6.25 + miconazole 25 μg/ml,+
same,Growth,[3]; Compound 1 6.25 + miconazole 50 μg/ml,-
same,Growth,[3]; Compound 1 6.25 + miconazole 100 μg/ml,-
same,Growth,[3]; Compound 1 12.5 + ketoconazole 0.1 μg/ml,+
same,Growth,[3]; Compound 1 12.5 + ketoconazole 25 μg/ml,-
same,Growth,[3]; Compound 1 12.5 + ketoconazole 50 μg/ml,-
same,Growth,[3]; Compound 1 12.5 + ketoconazole 100 μg/ml,-
same,Growth,[3]; Compound 1 12.5 + miconazole 0.39 μg/ml,+
same,Growth,[3]; Compound 1 12.5 + miconazole 0.78 μg/ml,+
same,Growth,[3]; Compound 1 12.5 + miconazole 50 μg/ml,-
same,Growth,[3]; Compound 1 12.5 + miconazole 100 μg/ml,-
same,Growth,[3]; Compound 1 25 + ketoconazole 0.1 μg/ml,+
same,Growth,[3]; Compound 1 25 + ketoconazole 25 μg/ml,-
same,Growth,[3]; Compound 1 25 + ketoconazole 50 μg/ml,-
same,Growth,[3]; Compound 1 25 + ketoconazole 100 μg/ml,-
same,Growth,[3]; Compound 1 25 + miconazole 0.39 μg/ml,+
same,Growth,[3]; Compound 1 25 + miconazole 0.78 μg/ml,+
same,Growth,[3]; Compound 1 25 + miconazole 50 μg/ml,-
same,Growth,[3]; Compound 1 25 + miconazole 100 μg/ml,-
same,Growth,[3]; Compound 1 50 + ketoconazole 0.1 μg/ml,+
same,Growth,[3]; Compound 1 50 + ketoconazole 25 μg/ml,-
same,Growth,[3]; Compound 1 50 + ketoconazole 50 μg/ml,-
same,Growth,[3]; Compound 1 50 + ketoconazole 100 μg/ml,-
same,Growth,[3]; Compound 1 50 + miconazole 0.39 μg/ml,+
same,Growth,[3]; Compound 1 50 + miconazole 0.78 μg/ml,+
same,Growth,[3]; Compound 1 50 + miconazole 50 μg/ml,-
same,Growth,[3]; Compound 1 50 + miconazole 100 μg/ml,-
same,Growth,[3]; Compound 1 100 + ketoconazole 0.1 μg/ml,+
same,Growth,[3]; Compound 1 100 + ketoconazole 25 μg/ml,-
same,Growth,[3]; Compound 1 100 + ketoconazole 50 μg/ml,-
same,Growth,[3]; Compound 1 100 + ketoconazole 100 μg/ml,-
same,Growth,[3]; Compound 1 100 + miconazole 0.39 μg/ml,+
same,Growth,[3]; Compound 1 100 + miconazole 0.78 μg/ml,+
same,Growth,[3]; Compound 1 100 + miconazole 50 μg/ml,-
same,Growth,[3]; Compound 1 100 + miconazole 100 μg/ml,-
same,MIC,[4],> 100 µg/mL
same,synergistic effects of combined use with non-azole antifungal agents,[5],no synergistic effects were observed
same,influence over growth curve,[6],fungistatic or fungicidal effects were enhanced

# — patent publication US5120735A, “Antifungal composition” (Kaken Pharmaceutical Co., Ltd., priority 1987, dated 1992)
